The values that follow come from ChEMBL document CHEMBL1128864, “Antitumor activities of -, -monogalactosylceramides and four diastereomers of an -galactosylceramide” (1995).

Common to all, as to format: functional
The subject of experiment [1] is Mus musculus. The experiment can be described thus: Percent of tumor growth inhibition ratio (TGIR)of the compound administered intravenously at dose 100 ug/kg(on day 7, 11,15) in subcutaneously infected BDF1 mice on day 22.
The subject of experiment [2] is Mus musculus. Kind of experiment: Percent of tumor growth inhibition ratio (TGIR)of the compound administered intravenously at dose 100 ug/kg(on day 7, 11,15) in subcutaneously infected BDF1 mice on day 18.
The subject of experiment [3] is Mus musculus. The experiment can be described thus: Percent of tumor growth inhibition ratio (TGIR)of the compound administered intravenously at dose 100 ug/kg(on day 7, 11,15) in subcutaneously infected BDF1 mice on day 14.
Experiment [4] relates to Mus musculus. Kind of experiment: Percent of tumor growth inhibition ratio (TGIR)of the compound administered intravenously at dose 100 ug/kg(on day 7, 11,15) in subcutaneously infected BDF1 mice on day 11.
In experiment [5] the test system is Mus musculus. The experiment can be described thus: Percent of tumor growth inhibition ratio (TGIR)of the compound administered intravenously at dose 100 ug/kg(on day 1, 5, 9) in subcutaneously infected BDF1 mice on day 12.
The test system of experiment [6] is Mus musculus. The experiment can be described thus: Percent of tumor growth inhibition ratio (TGIR)of the compound administered intravenously at dose 100 ug/kg(on day 1, 5, 9) in subcutaneously infected BDF1 mice on day 9.
The subject of experiment [7] is Mus musculus. The experiment can be described thus: Percent of tumor growth inhibition ratio (TGIR)of the compound administered intravenously at dose 100 ug/kg on day 1, 5, 9 in subcutaneously (murine fibrosarcoma Meth A cells) infected in BDF1 mice on day 13.
Experiment [8] relates to Mus musculus. Kind of experiment: Percent of tumor growth inhibition ratio (TGIR)of the compound administered intravenously at dose 100 ug/kg on day 1, 5, 9 in subcutaneously (murine fibrosarcoma Meth A cells) infected in BDF1 mice on day 10.
Experiment [9] has as its system Mus musculus. The experiment can be described thus: Percent of tumor growth inhibition ratio (TGIR)of the compound administered intravenously at dose 100 ug/kg(on day 1, 5, 9) in subcutaneously infected BDF1 mice on day 16.
In experiment [10] the test system is Mus musculus. The experiment can be described thus: Percent of tumor growth inhibition ratio (TGIR)of the compound administered intravenously at dose 100 ug/kg on day 1, 5, 9 in subcutaneously (murine fibrosarcoma Meth A cells) infected in BDF1 mice on day 20.
Experiment [11] has as its system Mus musculus. Kind of experiment: Percent of tumor growth inhibition ratio (TGIR)of the compound administered intravenously at dose 100 ug/kg on day 1, 5, 9 in subcutaneously (murine fibrosarcoma Meth A cells) infected in BDF1 mice on day 16.
The subject of experiment [12] is Mus musculus. The experiment can be described thus: Percent of tumor growth inhibition ratio (TGIR)of the compound administered intravenously at dose 100 ug/kg(on day 1, 5, 9) in subcutaneously infected BDF1 mice on day 20.
Experiment [13] is filed under the species Mus musculus. Kind of experiment: Evaluated for lymphocyte proliferation stimulatory effect in BALB/c mice and percent control of [3H]TdR incorporation at dose 100 ng/ml using allogenic mixed lymphocyte reaction (MLR).
Experiment [14] is filed under the species Mus musculus. The experiment can be described thus: Evaluated for lymphocyte proliferation stimulatory effect in BALB/c mice and percent control of [3H]TdR incorporation using allogenic mixed lymphocyte reaction (MLR) at a dose 1 ng/ml.
Experiment [15] is filed under the species Mus musculus. Kind of experiment: Evaluated for lymphocyte proliferation stimulatory effect in BALB/c mice and percent control of [3H]-TdR incorporation using allogenic mixed lymphocyte reaction (MLR) at a dose 10 ng/ml.
Experiment [16] concerns Mus musculus. The experiment can be described thus: Evaluated for life span prolonging effects against female BDF1 mice infected intraperitoneally 1x10E6 murine melanoma B16 cells on day 0 at dose of 0.1 mg/kg. The settings on record: route intraperitoneal.
Experiment [17] relates to Mus musculus. The experiment can be described thus: Evaluated for life span prolonging effects against female BDF1 mice infected intraperitoneally 1x10E6 murine melanoma B16 cells on day 0 at dose of 1 mg/kg. The settings on record: route intraperitoneal.
The test system of experiment [18] is Mus musculus. The experiment can be described thus: Evaluated for life span prolonging effects against female BDF1 mice infected intraperitoneally 1x10E6 P388 cells on day 0 at intravenous dose 0.1 mg/kg on day 1,5,9.

Take `CCCCCCCCCCCCCC(=O)N[C@@H](CO[C@H]1O[C@@H](CO)[C@H](O)[C@H](O)[C@@H]1O)[C@@H](O)CCCCCCCCCCCCC`: the TGIR was 13.1% in the experiment on Mus musculus [1], 8.5% in the experiment with Mus musculus [2] and 4.9% in the experiment with Mus musculus [3].
In the case of `CCCCCCCCCCCCCC(=O)N[C@H](CO[C@H]1O[C@@H](CO)[C@H](O)[C@H](O)[C@@H]1O)[C@@H](O)CCCCCCCCCCCCC`, the TGIR with Mus musculus [4] worked out at 55.9%; with Mus musculus [1], 40.1%; with Mus musculus [2], 42.2%; in the experiment with Mus musculus [3], 52.6%.
As for `CCCCCCCCCCCCCCC[C@@H](O)[C@H](CO[C@H]1O[C@@H](CO)[C@H](O)[C@H](O)[C@@H]1O)NC(=O)CCCCCCCCCCCCC` (stereo in doubt; form 3), the TGIR in the experiment on Mus musculus [5] is given as 45.2%; in the experiment with Mus musculus [6], 35.3%; with Mus musculus [7] it was 41.5%; in the experiment on Mus musculus [8] it was 45.6%; in the experiment on Mus musculus [9], 26.8%; in the experiment with Mus musculus [10] it was 21.3%. Also, the TGIR with Mus musculus [11] stood at 28.9%; in the experiment with Mus musculus [12], 4.2%.
As for `CCCCCCCCCCCCCCCCCCCCCC[C@@H](O)C(=O)N[C@@H](CO[C@H]1O[C@@H](CO)[C@H](O)[C@H](O)[C@@H]1O)[C@H](O)[C@H](O)CCCCCCCCCCCC(C)CC` (some centres undefined), the results for the Control in the experiment listed under Mus musculus [13], in the experiment filed under Mus musculus [14] and in the experiment listed under Mus musculus [15] were 255%, 179% and 209%, respectively. The Survival with Mus musculus [16] amounted to 28.2 days; with Mus musculus [17], 34.5 days; in the experiment with Mus musculus [18] it was 11.2 days. Further, the T/C with Mus musculus [16] is recorded as 152%; with Mus musculus [17], 187%; in the experiment with Mus musculus [18] it was 108%.
`CCCCCCCCCCCCCCCCCCCCCCC[C@@H](O)C(=O)N[C@@H](CO[C@H]1O[C@@H](CO)[C@H](O)[C@H](O)[C@@H]1O)[C@H](O)[C@H](O)CCCCCCCCCCCC(C)CC` (some centres undefined): the Control in the experiment listed under Mus musculus [13] is 319%; in the experiment listed under Mus musculus [14] it was 233%; in the experiment filed under Mus musculus [15] it was 281%. Besides, the Survival with Mus musculus [16] came out at 28 days; with Mus musculus [17] it was 32 days; in the experiment with Mus musculus [18], 11.2 days. In addition, the values for the T/C in the experiment with Mus musculus [16], in the experiment on Mus musculus [17] and in the experiment on Mus musculus [18] were 151%, 173% and 108%, respectively.
Consider `CCCCCCC/C=C/C(C)=C/CC/C=C/[C@@H](O)[C@H](CO[C@H]1O[C@@H](CO)[C@H](O)[C@H](O)[C@@H]1O)NC(=O)[C@H](O)CCCCCCCCCCCCCCCCCCCCCC`, for which the Control in the experiment filed under Mus musculus [13] is recorded as 169%; in the experiment listed under Mus musculus [14] it was 142%; in the experiment listed under Mus musculus [15], 134%. Besides, the Survival with Mus musculus [16] stood at 21.3 days; in the experiment on Mus musculus [17], 23.7 days; with Mus musculus [18], 11.3 days. The T/C with Mus musculus [16] amounted to 115%; in the experiment on Mus musculus [17], 127%; in the experiment on Mus musculus [18] it was 109%.
With `CCCCCCCCCCCCCCCCCCCCCC[C@@H](O)C(=O)N[C@@H](CO[C@H]1O[C@@H](CO)[C@H](O)[C@H](O)[C@@H]1O)[C@H](O)[C@H](O)CCCCCCCCCCCC`, the Control in the experiment listed under Mus musculus [13] came to 350%; in the experiment filed under Mus musculus [14], 253%; in the experiment listed under Mus musculus [15] it was 258%. The figures for the Survival with Mus musculus [16], in the experiment with Mus musculus [17] and with Mus musculus [18] were 26.8 days, 31.5 days and 11 days, respectively. The T/C in the experiment on Mus musculus [16] amounted to 145%; in the experiment on Mus musculus [17], 170%; in the experiment on Mus musculus [18] it was 106%.
Consider `CCCCCCCCCCCCCC(=O)N[C@H](CO[C@H]1O[C@@H](CO)[C@H](O)[C@H](O)[C@@H]1O)[C@H](O)CCCCCCCCCCCCC`, for which the TGIR in the experiment on Mus musculus [1] is given as 5.1%; in the experiment with Mus musculus [2], 11%; with Mus musculus [3], 13%.
In the case of `CCCCCCCCCCCCCCCCCCCCCC[C@@H](O)C(=O)N[C@@H](CO[C@H]1O[C@@H](CO)[C@H](O)[C@H](O)[C@@H]1O)[C@H](O)[C@H](O)CCCCCCCCCCCC(C)C`, the Control was 236% in the experiment filed under Mus musculus [13], 184% in the experiment filed under Mus musculus [14] and 220% in the experiment listed under Mus musculus [15]. Besides, the results for the Survival with Mus musculus [16], with Mus musculus [17] and in the experiment on Mus musculus [18] were 27.6 days, 27 days and 11.3 days, respectively. Also, the T/C is 149% in the experiment with Mus musculus [16], 146% with Mus musculus [17] and 109% in the experiment on Mus musculus [18].
`CCCCCCCCCCCCCCCCCCCCCCCCCC(=O)N[C@@H](CO[C@H]1O[C@H](CO)[C@H](O)[C@H](O)[C@H]1O)[C@H](O)[C@H](O)CCCCCCCCCCCCCC` [RGI-7000]: the TGIR turned out to be 41.1% in the experiment with Mus musculus [4], 40.2% in the experiment with Mus musculus [1], 51.1% in the experiment on Mus musculus [2] and 50.9% in the experiment on Mus musculus [3].
With `CCCCCCCCCCCCCCC[C@@H](O)[C@H](CO[C@H]1O[C@@H](CO)[C@H](O)[C@H](O)[C@@H]1O)NC(=O)CCCCCCCCCCCCC` (stereo in doubt; form 2), the TGIR is given as 2.7% in the experiment on Mus musculus [5]; -28% in the experiment on Mus musculus [6]; 45% with Mus musculus [7]; 45.2% in the experiment with Mus musculus [8]; 1.4% with Mus musculus [9]; 7% with Mus musculus [10]. The TGIR is reported as 29.2% with Mus musculus [11] and -7.6% in the experiment on Mus musculus [12].
Regarding `CCCCCCCCCCCCCCCCCCCCCCCCCC(=O)N[C@@H](CO[C@H]1O[C@@H](CO)[C@H](O)[C@H](O)[C@@H]1O)[C@H](O)[C@H](O)CCCCCCCCCCCCCC`, the TGIR in the experiment with Mus musculus [4] is 16.1%; in the experiment on Mus musculus [1], -3.8%; in the experiment on Mus musculus [2] it was 20.3%; in the experiment with Mus musculus [3], 17.2%.
Regarding `CCCCCCCCCCCCCC(=O)N[C@@H](CO[C@H]1O[C@@H](CO)[C@H](O)[C@H](O)[C@@H]1O)[C@H](O)CCCCCCCCCCCCC`, the TGIR stood at 76.5% in the experiment with Mus musculus [4], 67.9% with Mus musculus [1], 66.4% in the experiment with Mus musculus [2] and 66.6% in the experiment with Mus musculus [3].
With `CCCCCCCCCCCCCCC[C@@H](O)[C@H](CO[C@H]1O[C@@H](CO)[C@H](O)[C@H](O)[C@@H]1O)NC(=O)CCCCCCCCCCCCC` (stereo in doubt; form 1), the TGIR with Mus musculus [5] was 38%; in the experiment on Mus musculus [6], 29%; with Mus musculus [7] it was 33.1%; in the experiment with Mus musculus [8], 26.9%; in the experiment with Mus musculus [9], 35%; with Mus musculus [10], 3.9%. For the same compound, the values for the TGIR in the experiment with Mus musculus [11] and in the experiment with Mus musculus [12] were 22.1% and 28.3%, respectively.
On to `CCCCCCCCCCCCCCC[C@@H](O)[C@H](CO[C@H]1O[C@@H](CO)[C@H](O)[C@H](O)[C@@H]1O)NC(=O)CCCCCCCCCCCCC` (stereo in doubt; form 4), for which the TGIR in the experiment with Mus musculus [5] amounted to 62%; with Mus musculus [6] it was 59.5%; with Mus musculus [7], 68.1%; in the experiment on Mus musculus [8], 69%; in the experiment with Mus musculus [9] it was 64.8%; in the experiment with Mus musculus [10], 36.7%. Moreover, the TGIR in the experiment on Mus musculus [11] is given as 58.1%; in the experiment on Mus musculus [12], 54%.
